Tested on: yeast genes (level of expressed mRNA)
Assay: DNA chip analysis of expressed mRNA of yeast genes after 2 h culture with a toxic chemical substance
Format: cell-based, Saccharomyces cerevisiae S288C
Details: for The level of expressed mRNA in the presence of chemical substance/ (ratio to absence): transport facilitation protein gene; for The level of expressed mRNA in the presence of chemical substance/: ratio to no chemical; for The level of expressed mRNA in the presence of chemical substance/ in its absence, gene YDL078C: yeast gene YDL078C
Method in brief: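 S. cerevisiae S288C grown at 25° C in YPD; toxicant added at log phase at growth-inhibitory, non-lethal levels for 2 h, untreated cells as control. Poly(A) mRNA reverse-transcribed with Cy3/Cy5-dUTP, hybridized to whole-genome chip at 65° C >12 h; value is fluorescence ratio versus untreated.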

Substance: sodium dodecylbenzosulfonate [(17)]
- The level of expressed mRNA in the presence of chemical substance/ (ratio to absence), gene YBR122C (yeast gene YBR122C, mitochondria-located protein genes, 2 h culture with chemical): 0.9
- The level of expressed mRNA in the presence of chemical substance/ (ratio to absence) (yeast gene YBR127C): 0.8
- The level of expressed mRNA in the presence of chemical substance/ (ratio to absence) (yeast gene YBR132C): 1.1
- The level of expressed mRNA in the presence of chemical substance/in the absence of chemical substance (yeast gene YBR149W): 2.1
- The level of expressed mRNA in the presence of chemical substance/ (ratio to absence) (yeast gene YBR207W): 1.2
- The level of expressed mRNA in the presence of chemical substance/The level of expressed mRNA in the absence of chemical substance (yeast gene YBR214W): 1.1
- The level of expressed mRNA in the presence of chemical substance/ (ratio to absence) (yeast gene YBR241C): 1.0
- The level of expressed mRNA in the presence of chemical substance/ (ratio to absence), gene YBR251W (yeast gene YBR251W, mitochondria-located protein genes, 2 h culture with chemical): 0.9
- The level of expressed mRNA in the presence of chemical substance/in the absence of chemical substance (yeast gene YBR256C): 2.6
- The level of expressed mRNA in the presence of chemical substance/ (yeast gene YBR269C): 1.5
- The level of expressed mRNA in the presence of chemical substance/ (yeast gene YBR280C): 1.1
- The level of expressed mRNA in the presence of chemical substance/in the absence of chemical substance (yeast gene YBR284W): 1.1
- The level of expressed mRNA in the presence of chemical substance/ (yeast gene YBR285W): 2.5
- The level of expressed mRNA in the presence of chemical substance/ (ratio to absence) (yeast gene YBR291C): 0.9
- The level of expressed mRNA in the presence of chemical substance/ (yeast gene YBR292C): 0.9
- The level of expressed mRNA in the presence of chemical substance/ (ratio to absence) (yeast gene YBR293W): 1.0
- The level of expressed mRNA in the presence of chemical substance/in the absence of chemical substance (yeast gene YBR294W): 1.0
- The level of expressed mRNA in the presence of chemical substance/ (ratio to absence) (yeast gene YBR295W): 1.3
- The level of expressed mRNA in the presence of chemical substance/in the absence of chemical substance (yeast gene YBR296C): 3.8
- The level of expressed mRNA in the presence of chemical substance/ (in its absence), gene YBR298C (yeast gene YBR298C, ratio of DNA chip fluorescence intensity to that without chemical substance): 0.9
- The level of expressed mRNA in the presence of chemical substance/in the absence of chemical substance (yeast gene YCL018W): 1.3
- The level of expressed mRNA in the presence of chemical substance/The level of expressed mRNA in the absence of chemical substance (yeast gene YCL020W): 0.9
- The level of expressed mRNA in the presence of chemical substance/ (ratio to absence) (yeast gene YCL025C): 0.6
- The level of expressed mRNA in the presence of chemical substance/The level of expressed mRNA in the absence of chemical substance (yeast gene YCL027W): 0.7
- The level of expressed mRNA in the presence of chemical substance/ (ratio to absence) (yeast gene YCL038C): 1.4
- The level of expressed mRNA in the presence of chemical substance/in the absence of chemical substance (yeast gene YCL040W): 1.4
- The level of expressed mRNA in the presence of chemical substance/in the absence of chemical substance (yeast gene YCL043C): 0.9
- The level of expressed mRNA in the presence of chemical substance/in the absence of chemical substance (yeast gene YCL050C): 1.0
- The level of expressed mRNA in the presence of chemical substance/ (ratio to absence) (yeast gene YCL069W): 1.0
- The level of expressed mRNA in the presence of chemical substance/The level of expressed mRNA in the absence of chemical substance (yeast gene YCR004C): 1.4
- The level of expressed mRNA in the presence of chemical substance/in the absence of chemical substance (yeast gene YCR012W): 0.8
- The level of expressed mRNA in the presence of chemical substance/ (ratio to absence) (yeast gene YCR024C-A): 0.9
- The level of expressed mRNA in the presence of chemical substance/ (ratio to absence) (yeast gene YCR037C): 1.4
- The level of expressed mRNA in the presence of chemical substance/ (ratio to absence), gene YCR046C (yeast gene YCR046C, mitochondria-located protein genes, 2 h culture with chemical): 1.3
- The level of expressed mRNA in the presence of chemical substance/The level of expressed mRNA in the absence of chemical substance (yeast gene YCR071C): 1.2
- The level of expressed mRNA in the presence of chemical substance/ (ratio to absence), gene YCR083W (yeast gene YCR083W, mitochondria-located protein genes, 2 h culture with chemical): 1.3
- The level of expressed mRNA in the presence of chemical substance/ (ratio to absence of chemical substance) (yeast gene YCR083W, stress protein genes, DNA chip): 1.3
- The level of expressed mRNA in the presence of chemical substance/The level of expressed mRNA in the absence of chemical substance (yeast gene YCR088W): 1.4
- The level of expressed mRNA in the presence of chemical substance/ (ratio to absence) (yeast gene YCR098C): 1.7
- The level of expressed mRNA in the presence of chemical substance/in the absence of chemical substance (yeast gene YCR107W): 1.3
- The level of expressed mRNA in the presence of chemical substance/The level of expressed mRNA in the absence of chemical substance (yeast gene YDL008W): 1.5
- The level of expressed mRNA in the presence of chemical substance/in the absence of chemical substance (yeast gene YDL010W): 1.5
- The level of expressed mRNA in the presence of chemical substance/in the absence of chemical substance (yeast gene YDL021W): 1.9
- The level of expressed mRNA in the presence of chemical substance/in the absence of chemical substance (yeast gene YDL024C): 0.9
- The level of expressed mRNA in the presence of chemical substance/ in its absence, gene YDL067C (yeast gene YDL067C, energy system protein genes, 2 h culture with the chemical, ratio to control without chemical): 1.2
- The level of expressed mRNA in the presence of chemical substance/ (ratio to absence), gene YDL067C (yeast gene YDL067C, mitochondria-located protein genes, 2 h culture with chemical): 1.2
- The level of expressed mRNA in the presence of chemical substance/ in its absence, gene YDL078C (energy system protein genes, 2 h culture with the chemical, ratio to control without chemical): 1.1
- The level of expressed mRNA in the presence of chemical substance/ in its absence, gene YDL078C (ratio of DNA chip fluorescence intensity to that without chemical substance): 1.1
- The level of expressed mRNA in the presence of chemical substance/in the absence of chemical substance (yeast gene YDL095W): 0.7
- The level of expressed mRNA in the presence of chemical substance/ (yeast gene YDL113C): 1.2
- The level of expressed mRNA in the presence of chemical substance/ (yeast gene YDL123W): 1.1
- The level of expressed mRNA in the presence of chemical substance/in the absence of chemical substance (yeast gene YDL124W): 2.2
- The level of expressed mRNA in the presence of chemical substance/ (ratio to absence) (yeast gene YDL128W): 0.9
- The level of expressed mRNA in the presence of chemical substance/ (ratio to absence) (yeast gene YDL149W): 0.8
- The level of expressed mRNA in the presence of chemical substance/in the absence of chemical substance (yeast gene YDL174C): 2.2
- The level of expressed mRNA in the presence of chemical substance/ (ratio to absence) (yeast gene YDL198C): 1.5
- The level of expressed mRNA in the presence of chemical substance/ (ratio to absence) (yeast gene YDL206W): 1.0
- The level of expressed mRNA in the presence of chemical substance/ (ratio to absence) (yeast gene YDL210W): 1.1
- The level of expressed mRNA in the presence of chemical substance/ (in its absence), gene YDL215C (yeast gene YDL215C, ratio of DNA chip fluorescence intensity to that without chemical substance): 1.1
- The level of expressed mRNA in the presence of chemical substance/ (yeast gene YDL234C): 2.3
- The level of expressed mRNA in the presence of chemical substance/The level of expressed mRNA in the absence of chemical substance (yeast gene YDL238C): 1.1
- The level of expressed mRNA in the presence of chemical substance/ (yeast gene YDL242W): 0.9
- The level of expressed mRNA in the presence of chemical substance/in the absence of chemical substance (yeast gene YDL243C): 1.8
- The level of expressed mRNA in the presence of chemical substance/in the absence of chemical substance (yeast gene YDL245C): 1.0
- The level of expressed mRNA in the presence of chemical substance/ (ratio to absence) (yeast gene YDL245C): 1.0
- The level of expressed mRNA in the presence of chemical substance/in the absence of chemical substance (yeast gene YDL246C): 1.8
- The level of expressed mRNA in the presence of chemical substance/in the absence of chemical substance (yeast gene YDR001C): 1.1
- The level of expressed mRNA in the presence of chemical substance/ (yeast gene YDR018C): 0.9
- The level of expressed mRNA in the presence of chemical substance/ (ratio to absence) (yeast gene YDR038C): 1.3
- The level of expressed mRNA in the presence of chemical substance/ (ratio to absence) (yeast gene YDR039C): 1.1
- The level of expressed mRNA in the presence of chemical substance/ (ratio to absence) (yeast gene YDR040C): 1.4
- The level of expressed mRNA in the presence of chemical substance/The level of expressed mRNA in the absence of chemical substance (yeast gene YDR055W): 2.0
- The level of expressed mRNA in the presence of chemical substance/ (yeast gene YDR056C): 1.2
- The level of expressed mRNA in the presence of chemical substance/in the absence of chemical substance (yeast gene YDR058C): 1.1
- The level of expressed mRNA in the presence of chemical substance/in the absence of chemical substance (yeast gene YDR072C): 1.9
- The level of expressed mRNA in the presence of chemical substance/ (in its absence), gene YDR073W (yeast gene YDR073W, ratio of DNA chip fluorescence intensity to that without chemical substance): 1.8
- The level of expressed mRNA in the presence of chemical substance/ in its absence, gene YDR079W (yeast gene YDR079W, energy system protein genes, 2 h culture with the chemical, ratio to control without chemical): 1.1
- The level of expressed mRNA in the presence of chemical substance/ (ratio to absence), gene YDR079W (yeast gene YDR079W, mitochondria-located protein genes, 2 h culture with chemical): 1.1
- The level of expressed mRNA in the presence of chemical substance/The level of expressed mRNA in the absence of chemical substance (yeast gene YDR084C): 2.0
- The level of expressed mRNA in the presence of chemical substance/The level of expressed mRNA in the absence of chemical substance (yeast gene YDR085C): 1.3
- The level of expressed mRNA in the presence of chemical substance/The level of expressed mRNA in the absence of chemical substance (yeast gene YDR104C): 0.9
- The level of expressed mRNA in the presence of chemical substance/The level of expressed mRNA in the absence of chemical substance (yeast gene YDR115W): 1.2
- The level of expressed mRNA in the presence of chemical substance/in the absence of chemical substance (yeast gene YDR127W): 0.9
- The level of expressed mRNA in the presence of chemical substance/ (yeast gene YDR132C): 1.0
- The level of expressed mRNA in the presence of chemical substance/ (yeast gene YDR154C): 1.5
- The level of expressed mRNA in the presence of chemical substance/in the absence of chemical substance (yeast gene YDR158W): 1.0
- The level of expressed mRNA in the presence of chemical substance/ (yeast gene YDR202C): 1.0
- The level of expressed mRNA in the presence of chemical substance/in the absence of chemical substance (yeast gene YDR204W): 1.1
- The level of expressed mRNA in the presence of chemical substance/ (yeast gene YDR223W): 0.9
- The level of expressed mRNA in the presence of chemical substance/The level of expressed mRNA in the absence of chemical substance (yeast gene YDR259C): 1.0
- The level of expressed mRNA in the presence of chemical substance/in the absence of chemical substance (yeast gene YDR261C): 0.9
- The level of expressed mRNA in the presence of chemical substance/ (ratio to absence) (yeast gene YDR270W): 0.9
- The level of expressed mRNA in the presence of chemical substance/in the absence of chemical substance (yeast gene YDR272W): 1.4
- The level of expressed mRNA in the presence of chemical substance/ (yeast gene YDR295C): 0.8
- The level of expressed mRNA in the presence of chemical substance/ (in its absence), gene YDR297W (yeast gene YDR297W, ratio of DNA chip fluorescence intensity to that without chemical substance): 1.9

— US20050112573A1, “Method of detecting toxic substance” (priority 2001, published 2005)
